Results: the Bradley open melting point set (2014)

First: c1ccc(CN(Cc2ccccc2)c2ccccc2)cc1 [N,N-dibenzylaniline]
Second: O=C(N[C@H](Cc1ccccc1)C(=O)O)OCc1ccccc1 [N-benzyloxycarbonyl-D-phenylalanine]
The melting point of the first is lower: 70 °C for the first, 86 °C for the second.

Going from `CCN(O)CC` [N,N-diethylhydroxylamine] to `CCN(C(C)C)C(C)C` [N-ethyldiisopropylamine], the melting point falls from -25 °C to -46 °C.

Compared with `CN(C)c1ccc(N=O)cc1` [N,N-dimethyl-4-nitrosoaniline], `CN(C)c1ccc(N)cc1` [N,N-dimethyl-p-phenylenediamine] is lower in melting point: 86 °C for the first, 36 °C for the second.

Compared with `CN(C)c1ccccc1` [N,N-dimethylaniline], `CNCc1ccccc1` [N-benzylmethylamine] is lower in melting point: 2 °C for the first, -55 °C for the second.

First: CN(C)S(C)(=O)=O [N,N-dimethylmethanesulfonamide]
Second: CC(C)(C)OC(=O)N[C@H](CO)C(=O)O [N-boc-D-serine]
The melting point of the first is lower: 48 °C for the first, 90 °C for the second.

Going from `CC(=O)Nc1nc(O)c2ncn(COCCOC(C)=O)c2n1` [N,O-Diacetylacyclovir] to `O=C(OCCOCn1c2N\C(=N/C(=O)c2nc1)N)C` [O-Acetylacyclovir], the melting point rises from 204 °C to 242 °C.

Going from `NCCNCCN` [N-(2-Aminoethyl)ethane-1,2-diamine] to `CCCCNCCCC` [N-Butylbutan-1-amine], the melting point falls from -35 °C to -60 °C.

Going from `CC(=O)Nc1ccc2c(c1)NC(=O)C2` [N-(2-oxo-2,3-dihydro-1H-indol-6-yl)acetamide] to `CC(=O)Nc1ccc(O)cc1` [N-(4-Hydroxyphenyl)acetamide], the melting point falls from 335 °C to 170 °C.

First: Cc1ccc(N2C(=O)C=CC2=O)cc1Cl [N-(3-chloro-4-methylphenyl)maleimide]
Second: Cc1cc(C=O)c(C)n1-c1ccc(F)cc1 [OSM-S-02]
The melting point of the first is higher: 146 °C for the first, 118 °C for the second.

Compared with `O=C1c2ccccc2C(=O)N1CCCCBr` [N-(4-bromobutyl)phthalimide], `O=C1c2ccccc2C(=O)N1CCCCCCBr` [N-(6-bromohexyl)phthalimide] is lower in melting point: 79 °C for the first, 57 °C for the second.

Compared with `CC(=O)Nc1cccc2c(N)cccc12` [N-(5-aminonaphthalen-1-yl)acetamide], `CC(=O)Nc1ccccc1` [N-Phenylacetamide] is lower in melting point: 166 °C for the first, 115 °C for the second.

First: Cc1ccc(cc1NC(=O)/C=CC(=O)O)Cl [N-(5-chloro-2-methylphenyl)maleamic acid]
Second: CC(=O)N[C@@H](Cc1ccc(O)cc1)C(=O)O [N-acetyl-l-tyrosine]
The melting point of the first is lower: 120 °C for the first, 153 °C for the second.

First: NCCNc1ccc([N+](=O)[O-])cn1 [N-(5-nitro-2-pyridyl)-1,2-ethanediamine]
Second: CNc1ccc([N+](=O)[O-])cc1 [N-methyl-4-nitroaniline]
The melting point of the first is lower: 127 °C for the first, 153 °C for the second.

Going from `O=CNC(c1ccccc1)c1ccccc1` [N-(Diphenylmethyl)formamide] to `C(=N\c1ccccc1)/c1ccccc1` [N-benzylideneaniline], the melting point falls from 136 °C to 53 °C.

First: O=C1c2ccccc2C(=O)N1CBr [N-(bromomethyl)phthalimide]
Second: CCOC(=O)N1C(=O)c2ccccc2C1=O [N-(ethoxycarbonyl)phthalimide]
The melting point of the first is higher: 147 °C for the first, 81 °C for the second.

First: CCCCc1ccccc1 [N-Butylbenzene]
Second: CCCCCCCc1ccccc1 [N-heptylbenzene]
The melting point of the first is lower: -87.9 °C for the first, -48 °C for the second.

Going from `NC(=O)N[C@@H]1O[C@H](CO)[C@@H](O)[C@H](O)[C@H]1O` [N-Carbamoyl-beta-D-glucopyranosylamine] to `CC(=O)N[C@@H](CCC(=O)O)C(=O)O` [N-acetyl-l-glutamic acid], the melting point falls from 207 °C to 197 °C.

`O=C(O)[C@@H]1CCCN1C(=O)OCc1ccccc1` [N-Cbz-L-proline] and `O=C(O)[C@H]1CCCN1C(=O)OCc1ccccc1` [N-benzyloxycarbonyl-D-proline] are the same in melting point: 77 °C for the first, 77 °C for the second.

Going from `C1CCC(NC2CCCCC2)CC1` [N-Cyclohexylcyclohexanamine] to `C[C@]12CC[C@H]3[C@@H](CCC4=CC(=O)CC[C@@H]43)[C@@H]1CC[C@@H]2O` [Nandrolone], the melting point rises from -1 °C to 112 °C.

Compared with `ON=C1/CCCCC1` [N-Hydroxycyclohexanimine], `C#C[C@]1(O)CC[C@H]2[C@@H]3CCC4=CC(=O)CC[C@@H]4[C@H]3CC[C@@]21CC` [Norgestrel] is higher in melting point: 90 °C for the first, 206 °C for the second.

First: O=CNc1ccccc1 [N-Phenylformamide]
Second: CCNc1ccccc1 [N-ethylaniline]
The melting point of the first is higher: 47 °C for the first, -64 °C for the second.

First: O=[N+]([O-])c1cccc2c(/C=N/c3ccccc3)cccc12 [N-[(1E)-(5-nitronaphthalen-1-yl)methylidene]aniline]
Second: O=C(NC(Cc1ccccc1)C(=O)O)OCc1ccccc1[N+](=O)[O-] (stereo not given) [N-{[(2-nitrobenzyl)oxy]carbonyl}phenylalanine]
The melting point of the first is lower: 84 °C for the first, 141 °C for the second.

Compared with `CC(=O)N/C=C/c1ccccc1[N+](=O)[O-]` [N-[(E)-2-(2-nitrophenyl)ethenyl]acetamide], `CC(C)(C)/[N+]([O-])=C/c1ccccc1` [N-tert-butyl-alpha-phenylnitrone] is lower in melting point: 150 °C for the first, 73 °C for the second.

Going from `N=C(N)NC(N)=S` [N-amidinothiourea] to `C[C@@H](CO)NC(=O)OC(C)(C)C` [N-boc-L-alaninol], the melting point falls from 164 °C to 59 °C.

`C[C@@H](NC(=O)OCc1ccccc1)C(=O)O` [N-benzyloxycarbonyl-D-alanine] and `C[C@H](NC(=O)OCc1ccccc1)C(=O)O` [N-benzyloxycarbonyl-l-alanine] are the same in melting point: 85 °C for the first, 85 °C for the second.

Compared with `O=C(N[C@H](CO)C(=O)O)OCc1ccccc1` [N-benzyloxycarbonyl-D-serine], `CCCC[C@H](NC(=O)OCc1ccccc1)C(=O)O` [N-benzyloxycarbonyl-l-norleucine] is lower in melting point: 118 °C for the first, 57 °C for the second.

Going from `CC(C)[C@@H](NC(=O)OCc1ccccc1)C(=O)O` [N-benzyloxycarbonyl-D-valine] to `C[C@@H](O)[C@H](NC(=O)OCc1ccccc1)C(=O)O` [N-benzyloxycarbonyl-l-threonine], the melting point rises from 59 °C to 98 °C.

First: CC(C)(C)OC(=O)N[C@@H](CO)Cc1ccccc1 [N-boc-D-phenylalaninol]
Second: CC(C)(C)OC(=O)N[C@H](COCc1ccccc1)C(=O)O [N-boc-o-benzyl-D-serine]
The melting point of the first is higher: 95 °C for the first, 62 °C for the second.

Compared with `CC(C)[C@@H](NC(=O)OC(C)(C)C)C(=O)O` [N-boc-D-valine], `CC(C)[C@H](NC(=O)OC(C)(C)C)C(=O)O` [N-boc-L-valine] is higher in melting point: 78 °C for the first, 79 °C for the second.

First: C[C@H](NC(=O)OC(C)(C)C)C(=O)O [N-boc-L-alanine]
Second: CSCC[C@H](NC(=O)OC(C)(C)C)C(=O)O [N-boc-L-methionine]
The melting point of the first is higher: 82 °C for the first, 50 °C for the second.

Compared with `CCCCOC(=O)c1ccc(O)cc1` [N-butyl 4-hydroxybenzoate], `CCCCCOC(=O)c1ccc(O)cc1` [N-pentyl 4-hydroxybenzoate] is lower in melting point: 69 °C for the first, 38 °C for the second.

Compared with `CCCCc1ccccc1` [N-butylbenzene], `CCCCCCCCCCCCc1ccccc1` [N-dodecylbenzene] is higher in melting point: -88 °C for the first, -7 °C for the second.

Compared with `O=C(O)C1CCN(C(=O)CCl)CC1` [N-chloroacetylisonipecotic acid], `CCn1cc(C(=O)O)c(=O)c2ccc(C)nc21` [Nalidixic Acid] is higher in melting point: 110 °C for the first, 230 °C for the second.

Compared with `CC[C@H](C)[C@H](NC(=O)OCC1c2ccccc2-c2ccccc21)C(=O)O` [N-fmoc-L-isoleucine], `CC(C)C[C@H](NC(=O)OCC1c2ccccc2-c2ccccc21)C(=O)O` [N-fmoc-L-leucine] is higher in melting point: 147 °C for the first, 154 °C for the second.

Going from `CSCC[C@H](NC(=O)OCC1c2ccccc2-c2ccccc21)C(=O)O` [N-fmoc-L-methionine] to `NC(=O)[C@H](Cc1ccccc1)NC(=O)OCc1ccccc1` [Nalpha-[(benzyloxy)carbonyl]phenylalaninamide], the melting point rises from 134 °C to 163 °C.

First: CCCCCCCCCCCCCCCCCCCCC [N-heneicosane]
Second: CCCCCCCCCCCCCCCCCCCCCCCCCC [N-hexacosane]
The melting point of the first is lower: 41 °C for the first, 57 °C for the second.

Going from `CC(C)Nc1ccc(Nc2ccccc2)cc1` [N-isopropyl-n'-phenyl-p-phenylenediamine] to `c1ccc2ccccc2c1` [Naphthalene], the melting point rises from 77 °C to 82 °C.

Compared with `CN(N)c1ccc(C(F)(F)F)cc1[N+](=O)[O-]` [N-methyl-N-[2-nitro-4-(trifluoromethyl)phenyl]hydrazine], `Cc1ccc(C)n1-c1ccc(C(F)(F)F)cc1` [OSM-S-27] is higher in melting point: 66 °C for the first, 71.5 °C for the second.

Compared with `CNC=O` [N-methylformamide], `CCCCCCCCC=O` [Nonanal] is lower in melting point: -4 °C for the first, -18 °C for the second.

Going from `O=C1C=C/C(=O)N(N1)C` [N-methylmaleic hydrazide] to `Cc1ccc(C)n1-c1ccc(F)cc1` [OSM-S-01], the melting point falls from 218 °C to 48.5 °C.

First: CCCCCCCCCCCCCCC [N-pentadecane]
Second: CCCOC(=O)c1ccc(O)cc1 [N-propyl 4-hydroxybenzoate]
The melting point of the first is lower: 10 °C for the first, 97 °C for the second.

First: OCCNc1ccccc1 [N-phenylethanolamine]
Second: O=C(O)CNc1ccccc1 [N-phenylglycine]
The melting point of the first is lower: -30 °C for the first, 118 °C for the second.

Going from `CC(C)(C)NCC(O)COc1cccc2c1C[C@H](O)[C@H](O)C2` (stereo not given in full) [Nadolol] to `Cc1cc(C(=O)OCC(=N)O)c(C)n1-c1ccc(F)cc1` [OSM-S-05], the melting point rises from 124 °C to 178 °C.

First: c1ccc2cc3cc4ccccc4cc3cc2c1 [Naphthacene]
Second: Nc1cc2ccccc2cc1N [Naphthalene-2,3-diamine]
The melting point of the first is higher: 357 °C for the first, 190 °C for the second.

Compared with `O=C(O)Cc1cccc2ccccc12` [Naphthalen-1-Yl-Acetic Acid], `COc1ccc2cc(C(C)CO)ccc2c1` (stereo not given) [Naproxol] is lower in melting point: 135 °C for the first, 87 °C for the second.

First: C[C@@H]1CC=CC=CC=CC=C[C@H](OC2O[C@H](C)[C@@H](O)[C@H](N)[C@@H]2O)C[C@@H]2O[C@](O)(C[C@@H](O)C[C@H]3O[C@@H]3C=CC(=O)O1)C[C@H](O)[C@H]2C(=O)O (stereo not given in full) [Natamycin]
Second: Cc1cc(C(O)=NCC(=N)O)c(C)n1-c1ccc(F)cc1 [OSM-S-19]
The melting point of the first is higher: 290 °C for the first, 194 °C for the second.

Going from `O=C(O)c1cccnc1` [Niacin] to `CCOC(=O)c1cc(C)n(-c2ccc(F)cc2)c1C` [OSM-S-03], the melting point falls from 237 °C to 64.5 °C.

Work on `O=C(O)c1cccnc1` [Nicotinic acid] yielded a melting point of 237 °C.
